# Assay results taken from patent US20150374673A1, “Combination Therapy for the Treatment of Nosocomial Pneumonia” (priority 2013, published 2015).
# Where two headings read alike, the source gives them in different places.
# What was measured:
# [1] = system: S. aureus; assay: MIC, CLSI broth microdilution in CAMHB with 0-10% pulmonary surfactant (avibactam fixed at 4 μg/mL in combination); format: cell-based, Staphylococcus aureus
# Procedure: (§1) The bacterial strains used in this testing were part of the microbiological culture collection housed at AstraZeneca R&D Boston (AstraZeneca Research Collection, designated ARC). The panel of bacterial isolates used for this testing was comprised of five CLSI QC reference strains and the remainder were either recent clinical isolates expressing β-lactamases or isolates from the primary bacterial screening panels.
# (§2) MIC values were determined using the CLSI broth microdilution methodology with slight variation. Stock compound mother plates were prepared and used to spot 2 μL aliquots of serial 2-fold drug dilutions to columns 1-11 of 96-well daughter plates using a Perkin-Elmer MiniTrak™ MultiPosition dispenser. […] An inoculum volume of 100 μL (5×10E^5 CFU/mL) in CAMHB containing 0, 1, 2.5, 5, or 10% pulmonary surfactant was added using a multichannel Finnpipette® to each well of the 96-well plate.
# (§3) The minimum inhibitory concentration (MIC) values against each organism/drug combination were determined using broth microdilution methodology according to CLSI guidelines. The recommended reference bacterial strains for each test group and reference compounds were incorporated into each test. For Gram-negatives, the reference bacterial strains were Escherichia coli ATCC 25922, E. coli ATCC 35218, Klebsiella pneumoniae ATCC 700603, and Pseudomonas aeruginosa ATCC 27853. Staphylococcus aureus ATCC 29213 was the reference bacterial strain for the Gram-positives.
# (§4) MIC values for individual isolates were read visually. The MICs for each compound or combination in pulmonary surfactant was compared to the compound or combination tested in CAMHB alone.
# [2] = Protein binding, equilibrium dialysis chamber, LC-MS/MS; format: in vitro ADME
# Procedure: Blood was separated from plasma using a cooled centrifuge. Samples were split and stored at −80° C.
# [3] = system: P. aeruginosa; assay: MIC, CLSI broth microdilution in CAMHB with 0-10% pulmonary surfactant (avibactam fixed at 4 μg/mL in combination); format: cell-based, Pseudomonas aeruginosa; settings: Pseudomonas aeruginosa, read-out: MIC
# Procedure: as §1, §2, §3, §4
# [4] = system: Gram-positive or Gram-negative bacterial strains; assay: MIC in pulmonary surfactant compared with CAMHB alone, whole strain panel; format: cell-based; settings: up to 10% pulmonary surfactant vs CAMHB alone; any strain tested
# Procedure: as §1, §2
# The minimum inhibitory concentration (MIC) values against each organism/drug combination were determined using broth microdilution methodology according to CLSI guidelines. The recommended reference bacterial strains for each test group and reference compounds were incorporated into each test. […]
# MIC values for individual isolates were read visually. […]
# [5] = Serum and epithelial lining fluid (ELF) pharmacokinetics of ceftazidime-avibactam human simulated regimen in infected and uninfected mice; settings: for fT > MIC: human simulated CAZ-AVI 2000-500 mg q8h 2 h infusion
# Procedure: Pathogen-free, female ICR mice weighing approximately 25 g were acquired from Harlan Sprague Dawley, Inc. (Indianapolis, Ind.) and utilized throughout these experiments. Animals were maintained and used in accordance to National Research Council recommendations, and provided food and water ad libitum. Mice were rendered neutropenic with 100 and 250 mg/kg intraperitoneal injections of cyclophosphamide (Cytoxan®; Bristol-Myers Squibb, Princeton, N.J.) given one and four days prior to inoculation, respectively. Three days prior to inoculation, mice were also given a single 5 mg/kg intraperitoneal injection of uranyl nitrate. This produces a predictable degree of renal impairment to slow drug clearance. Two hours prior to the initiation of antimicrobial therapy, mice were lightly anesthetized using isofluorane (2.5% v/v in 100% oxygen carrier) until the respiratory rate decreased upon visual inspection. Pneumonia was induced by the instillation of 0.05 mL of a 10^7 CFU inoculum of the test isolate suspended in 3% mucin in normal saline. While the mouse is anesthetized, the inoculum is delivered into the animal's oral cavity, blocking the nares and holding the mouse in a vertical position. Aspiration of bacteria into the lungs occurred as the animals began to spontaneously respire.
# In these studies, we utilized the previously determined dosing regimen described above. Confirmatory serum pharmacokinetic studies were undertaken in infected mice. For these studies, infected neutropenic mice were dosed with the above calculated regimen and groups of six mice ? were euthanized at multiple time points throughout a 24 h period to confirm target exposures blood was collected via cardiac puncture and the serum samples were stored at −80° C. until analysis. Pharmacokinetic studies were undertaken to describe the epithelial lining fluid concentrations in infected mice. For these studies, infected neutropenic mice were dosed with the above calculated regimen and groups of six mice were euthanized at multiple time points throughout the third dosing period (i.e. 16-24 h). Once euthanized, serum and BAL samples were collected as described above. Serum and BAL samples were stored at −80° C. until analysis.
# [6] = female, ICR, mouse, epithelial lining fluid (ELF) vs serum, ELF point Penetration Ratio, infected mice, ELF vs serum, third dosing interval
# [7] = female, ICR, mouse, epithelial lining fluid (ELF) vs serum, ELF point Penetration Ratio, uninfected mice, ELF vs serum, third dosing interval
compound,measurement,setting,value
"CC(C)(O/N=C(\C(=O)N[C@@H]1C(=O)N2C(C(=O)[O-])=C(C[n+]3ccccc3)CS[C@H]12)c1csc(N)n1)C(=O)O [ceftazidime, (6R,7R)-7-[[(2Z)-2-(2-amino-1,3-thiazol-4-yl)-2-(1-hydroxy-2-methyl-1-oxopropan-2-yl)oxyiminoacetyl]amino]-8-oxo-3-(pyridin-1-ium-1-ylmethyl)-5-thia-1-azabicyclo[4.2.0]oct-2-ene-2-carboxylate pentahydrate]",MIC,"[1]; S. aureus ARC12 (CLSI QC strain, ATCC 29213), surfactant 0%",8 µg/mL
same,MIC,"[1]; S. aureus ARC12 (CLSI QC strain, ATCC 29213), surfactant 1%",16 µg/mL
same,MIC,"[1]; S. aureus ARC12 (CLSI QC strain, ATCC 29213), surfactant 2.5%",16 µg/mL
same,MIC,"[1]; S. aureus ARC12 (CLSI QC strain, ATCC 29213), surfactant 5%",8 µg/mL
same,MIC,"[1]; S. aureus ARC12 (CLSI QC strain, ATCC 29213), surfactant 10%",8 µg/mL
same,MIC,"[1]; S. aureus ARC516 (MRSA, quinolone-resistant), surfactant 0%",>64 µg/mL
same,MIC,"[1]; S. aureus ARC516 (MRSA, quinolone-resistant), surfactant 1%",>64 µg/mL
same,MIC,"[1]; S. aureus ARC516 (MRSA, quinolone-resistant), surfactant 2.5%",>64 µg/mL
same,MIC,"[1]; S. aureus ARC516 (MRSA, quinolone-resistant), surfactant 5%",>64 µg/mL
same,MIC,"[1]; S. aureus ARC516 (MRSA, quinolone-resistant), surfactant 10%",>64 µg/mL
same,fraction unbound,[2],0.9
same,MIC,"[3]; ATCC27853, P. aeruginosa ARC3 (CLSI QC strain, ATCC 27853), surfactant 1%",1 µg/mL
same,MIC,"[3]; ATCC27853, P. aeruginosa ARC3 (CLSI QC strain, ATCC 27853), surfactant 2.5%",2 µg/mL
same,MIC,"[3]; ATCC27853, P. aeruginosa ARC3 (CLSI QC strain, ATCC 27853), surfactant 5%",1 µg/mL
same,MIC,"[3]; ATCC27853, P. aeruginosa ARC3 (CLSI QC strain, ATCC 27853), surfactant 10%",2 µg/mL
same,MIC,"[3]; ATCC27853, P. aeruginosa ARC3 (CLSI QC strain, ATCC 27853), surfactant 0%",1 µg/mL
same,MIC,"[3]; P. aeruginosa ARC2532 (Clinical isolate), surfactant 0%",2 µg/mL
same,MIC,"[3]; P. aeruginosa ARC2532 (Clinical isolate), surfactant 1%",2 µg/mL
same,MIC,"[3]; P. aeruginosa ARC2532 (Clinical isolate), surfactant 2.5%",2 µg/mL
same,MIC,"[3]; P. aeruginosa ARC2532 (Clinical isolate), surfactant 5%",2 µg/mL
same,MIC,"[3]; P. aeruginosa ARC2532 (Clinical isolate), surfactant 10%",2 µg/mL
same,MIC,"[3]; P. aeruginosa ARC2761 (Clinical isolate), surfactant 1%",2 µg/mL
same,MIC,"[3]; P. aeruginosa ARC2761 (Clinical isolate), surfactant 2.5%",1 µg/mL
same,MIC,"[3]; P. aeruginosa ARC2761 (Clinical isolate), surfactant 5%",2 µg/mL
same,MIC,"[3]; P. aeruginosa ARC2761 (Clinical isolate), surfactant 10%",2 µg/mL
same,MIC,"[3]; P. aeruginosa ARC3508 (derepressed AmpC), surfactant 0%",32 µg/mL
same,MIC,"[3]; P. aeruginosa ARC3508 (derepressed AmpC), surfactant 1%",32 µg/mL
same,MIC,"[3]; P. aeruginosa ARC3508 (derepressed AmpC), surfactant 2.5%",32 µg/mL
same,MIC,"[3]; P. aeruginosa ARC3508 (derepressed AmpC), surfactant 5%",32 µg/mL
same,MIC,"[3]; P. aeruginosa ARC3508 (derepressed AmpC), surfactant 10%",32 µg/mL
same,MIC,"[3]; PAO1, P. aeruginosa ARC545 (PAO1), surfactant 0%",1 µg/mL
same,MIC,"[3]; PAO1, P. aeruginosa ARC545 (PAO1), surfactant 1%",1 µg/mL
same,MIC,"[3]; PAO1, P. aeruginosa ARC545 (PAO1), surfactant 2.5%",1 µg/mL
same,MIC,"[3]; PAO1, P. aeruginosa ARC545 (PAO1), surfactant 5%",1 µg/mL
same,MIC,"[3]; PAO1, P. aeruginosa ARC545 (PAO1), surfactant 10%",1 µg/mL
same,MIC,"[3]; P. aeruginosa ARC2761 (Clinical isolate), surfactant 0%",2 µg/mL
same,MIC increase in pulmonary surfactant,[4],no MIC increases were observed
same,fT > MIC,"[5]; MIC 4, ELF, infected mice",100%
same,fT > MIC,"[5]; MIC 4, ELF, uninfected mice",100%
same,fT > MIC,"[5]; MIC 4, Serum, infected mice",100%
same,fT > MIC,"[5]; MIC 4, Serum, uninfected mice",100%
same,fT > MIC,"[5]; MIC 32, ELF, infected mice",0%
same,fT > MIC,"[5]; MIC 32, ELF, uninfected mice",34%
same,fT > MIC,"[5]; MIC 32, Serum, infected mice",50%
same,fT > MIC,"[5]; MIC 32, Serum, uninfected mice",62%
same,Kp at 16 h,[5]; [6],2.13
same,Kp at 18.5 h,[5]; [6],0.8
same,Kp at 22 h,"[5]; female, ICR, mouse, epithelial lining fluid (ELF) vs serum, ELF point Penetration Ratio, infected mice, 22 h, ELF vs serum, third dosing interval",0.3
same,Kp at 24 h,[5]; [6],0.95
same,Kp at 16 h,[5]; [7],1.02
same,Kp at 18.5 h,[5]; [7],0.8
same,Kp at 24 h,[5]; [7],0.64
